The target in assay [1] is EGFR mutant L858R Ba/F3 cells (Homo sapiens, UniProt P00533, L858R, cells depend on it). The assay can be described thus: Ba/F3 cell proliferation (Cell Titer Glo), EGFR L858R. The assay is classed as cell-based, murine. The note with it: 72 hours exposure, read-out: L858R BaF3 (μM), inhibitory activity against EGFR mutants. From the text: (§1) The EGFR mutant L858R Ba/F3 cells have been previously described (Zhou, W., et al. Nature 462, 2009, 1070-1074). The EGFR C797S and C775S mutations were introduced via site directed mutagenesis using the Quick Change Site-Directed Mutagenesis kit into a vector containing EGFR L858R mutation (Stratagene; La Jolla, CA) according to the manufacturer's instructions. All constructs were confirmed by DNA sequencing. The constructs were then shuttled into the retroviral vector JP1540 by either using the Cre-recombination system (Agilent Technologies, Santa Clara, CA) or the In-fusion HD Cloning kit (Takara Bio USA, Inc.; Mountain view, CA). Ba/F3 cells were then infected with retrovirus per standard protocols, as described previously (Zhou, et al, Nature 2009). Stable clones were obtained by selection in puromycin (2 ug/ml). All BaF/3 mutant cells were maintained in RPMI 1640 (Cellgro; Mediatech Inc., Herndon, CA) supplemented with 10% FBS, 100 units/mL penicillin, 100 units/mL streptomycin.
(§2) Growth and inhibition of growth was assessed by the Cell Titer Glo assay (Promega, Madison, WI) and was performed according to the manufacturer's instructions. The Cell Titer Glo assay is a luminescence-based method used to determine the number of viable cells based on quantitation of the ATP present, which is directly proportional to the amount of metabolically active cells present. Ba/F3 cells of different EGFR genotypes were exposed to compounds for 72 hours and the number of cells used per experiment was determined empirically as has been previously established (Zhou, et al., Nature 2009). All experimental points were set up in triplicates in 384-well plates. […] The curves were fitted using a non-linear regression model with a sigmoidal dose response.
(§3) For inhibitory activity against EGFR mutants, the following designations are used: ≤0·25 μM=A, 0·25 μM˜0.5 μM=B, 0.5 μM˜2.5 μM=C, ≥2.5 μM=D.
Background: ATP-based viability assays read luminescence as a measure of living cells.

The target in assay [2] is EGFR L858R/C797S Ba/F3 cells (Homo sapiens, UniProt P00533, C797S/L858R, cells depend on it). Briefly: Ba/F3 cell proliferation (Cell Titer Glo), EGFR L858R/C797S. The class given is cell-based, murine. The note with it: 72 hours exposure, read-out: L858R/C797S (μM), inhibitory activity against EGFR mutants.
Text: as §1, §2, §3

EGFR L858R/C797S Ba/F3 cells, sequence (P00533 whole entry C797S/L858R): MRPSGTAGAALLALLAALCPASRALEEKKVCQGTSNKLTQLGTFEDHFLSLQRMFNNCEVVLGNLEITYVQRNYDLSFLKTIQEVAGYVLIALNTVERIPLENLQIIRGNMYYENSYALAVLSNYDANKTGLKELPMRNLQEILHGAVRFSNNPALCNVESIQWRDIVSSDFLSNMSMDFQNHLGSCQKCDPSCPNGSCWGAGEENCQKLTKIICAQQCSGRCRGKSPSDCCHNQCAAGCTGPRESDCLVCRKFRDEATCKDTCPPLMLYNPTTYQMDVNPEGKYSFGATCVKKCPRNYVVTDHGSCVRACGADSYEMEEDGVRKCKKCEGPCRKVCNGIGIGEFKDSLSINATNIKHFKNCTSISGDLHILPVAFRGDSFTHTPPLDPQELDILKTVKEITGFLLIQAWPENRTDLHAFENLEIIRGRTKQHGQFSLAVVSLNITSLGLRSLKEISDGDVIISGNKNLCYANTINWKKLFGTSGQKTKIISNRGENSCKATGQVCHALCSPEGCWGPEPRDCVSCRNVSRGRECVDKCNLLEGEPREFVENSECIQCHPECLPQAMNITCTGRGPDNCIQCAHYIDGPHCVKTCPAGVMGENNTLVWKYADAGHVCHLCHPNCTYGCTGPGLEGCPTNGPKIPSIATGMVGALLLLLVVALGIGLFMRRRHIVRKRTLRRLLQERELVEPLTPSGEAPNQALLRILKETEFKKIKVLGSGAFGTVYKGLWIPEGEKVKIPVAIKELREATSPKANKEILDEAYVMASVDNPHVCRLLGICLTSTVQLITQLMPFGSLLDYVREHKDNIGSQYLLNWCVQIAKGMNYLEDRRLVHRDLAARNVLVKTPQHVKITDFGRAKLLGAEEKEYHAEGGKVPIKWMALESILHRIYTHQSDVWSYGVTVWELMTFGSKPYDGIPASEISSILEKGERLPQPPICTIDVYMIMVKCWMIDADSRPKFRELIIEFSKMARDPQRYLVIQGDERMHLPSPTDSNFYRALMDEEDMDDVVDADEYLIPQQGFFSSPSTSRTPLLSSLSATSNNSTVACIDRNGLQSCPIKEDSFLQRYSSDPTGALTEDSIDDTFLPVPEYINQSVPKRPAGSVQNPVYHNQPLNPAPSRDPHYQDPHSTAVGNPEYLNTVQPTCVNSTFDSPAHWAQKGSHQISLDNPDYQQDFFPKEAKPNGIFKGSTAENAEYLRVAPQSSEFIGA
EGFR mutant L858R Ba/F3 cells, sequence (P00533 whole entry L858R): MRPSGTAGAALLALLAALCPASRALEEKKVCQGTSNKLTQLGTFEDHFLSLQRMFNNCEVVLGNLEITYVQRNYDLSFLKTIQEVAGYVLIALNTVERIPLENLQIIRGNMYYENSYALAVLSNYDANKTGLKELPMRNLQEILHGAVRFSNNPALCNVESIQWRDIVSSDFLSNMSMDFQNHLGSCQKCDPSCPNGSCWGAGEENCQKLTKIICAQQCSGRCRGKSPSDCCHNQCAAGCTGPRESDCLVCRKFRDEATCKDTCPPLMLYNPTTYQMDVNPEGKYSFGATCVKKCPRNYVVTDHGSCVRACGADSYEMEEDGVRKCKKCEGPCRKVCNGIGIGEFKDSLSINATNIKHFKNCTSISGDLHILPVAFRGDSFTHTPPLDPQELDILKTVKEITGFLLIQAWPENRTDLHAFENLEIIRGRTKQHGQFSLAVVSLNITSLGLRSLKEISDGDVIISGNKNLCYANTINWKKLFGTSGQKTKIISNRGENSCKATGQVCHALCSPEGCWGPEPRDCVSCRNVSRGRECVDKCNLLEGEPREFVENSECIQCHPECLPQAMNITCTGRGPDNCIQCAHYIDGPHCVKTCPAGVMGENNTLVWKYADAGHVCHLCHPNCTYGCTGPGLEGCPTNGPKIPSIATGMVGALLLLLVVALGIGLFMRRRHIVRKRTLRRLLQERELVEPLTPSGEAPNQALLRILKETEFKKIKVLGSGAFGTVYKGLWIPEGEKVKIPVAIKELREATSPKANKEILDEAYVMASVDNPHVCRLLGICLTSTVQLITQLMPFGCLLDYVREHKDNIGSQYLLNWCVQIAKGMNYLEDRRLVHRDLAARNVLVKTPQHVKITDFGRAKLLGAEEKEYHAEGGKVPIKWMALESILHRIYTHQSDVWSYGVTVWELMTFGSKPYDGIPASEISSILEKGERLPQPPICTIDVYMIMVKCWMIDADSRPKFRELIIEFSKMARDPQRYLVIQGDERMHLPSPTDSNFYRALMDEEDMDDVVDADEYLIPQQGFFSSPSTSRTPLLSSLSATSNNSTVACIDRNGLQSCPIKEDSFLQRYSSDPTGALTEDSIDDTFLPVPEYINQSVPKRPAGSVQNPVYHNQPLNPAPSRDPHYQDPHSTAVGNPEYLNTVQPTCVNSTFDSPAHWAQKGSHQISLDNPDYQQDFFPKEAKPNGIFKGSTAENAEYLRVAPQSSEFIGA

With `C=CC(=O)N1CCN(c2cc3cnc(N)nc3n(-c3ccc(N4CCN(C)CC4)cc3)c2=O)c2cccc(C)c21` [Compound 092, 2-amino-8-[4-(4-methylpiperazin-1-yl)phenyl]-6-(5-methyl-4-prop-2-enoyl-2,3-dihydroquinoxalin-1-yl)pyrido[2,3-d]pyrimidin-7-one], the GI50 in assay [1] and in assay [2] was at most 0.25 µM in each case.

Consider `C=CC(=O)N1CCN(c2cc3cnc(Nc4ccc(N5CCN(C)CC5)cn4)nc3n(C)c2=O)c2cccc(C)c21` [Compound 030], for which the GI50 in assay [1] and in assay [2] was at most 0.25 µM each time.

As for `C=CC(=O)N1CCN(c2cc3cnc(Nc4ccc(OCCN(C)C)cc4)nc3n(C3CC(OC)C3)c2=O)c2cccc(C)c21` (stereo not drawn) [Compound 071, 2-[4-[2-(dimethylamino)ethoxy]anilino]-8-(3-methoxycyclobutyl)-6-(5-methyl-4-prop-2-enoyl-2,3-dihydroquinoxalin-1-yl)pyrido[2,3-d]pyrimidin-7-one], the GI50 in assay [1] and in assay [2] was at most 0.25 µM throughout.

`C=CC(=O)N1CCN(c2cc3cnc(Nc4ccc(OCCN5CCCC5)cc4)nc3n(C)c2=O)c2cccc(C)c21` [Compound 032]: the GI50 in assay [1] and in assay [2] was at most 0.25 µM throughout.

For `C=CC(=O)N1CCN(c2cc3cnc(Nc4ccc(N5CCN(C)CC5)cc4)nc3n(C)c2=O)c2cccc(C)c21` [Compound 019, 8-methyl-2-[4-(4-methylpiperazin-1-yl)anilino]-6-(5-methyl-4-prop-2-enoyl-2,3-dihydroquinoxalin-1-yl)pyrido[2,3-d]pyrimidin-7-one], the GI50 in assay [1] and in assay [2] was at most 0.25 µM each time.

For the molecule `C=C(F)C(=O)N1CCN(c2cc3cnc(Nc4cnn(CCO)c4)nc3n(C)c2=O)c2ccccc21` [Compound 013, 6-[4-(2-fluoroprop-2-enoyl)-2,3-dihydroquinoxalin-1-yl]-2-[[1-(2-hydroxyethyl)pyrazol-4-yl]amino]-8-methyl-pyrido[2,3-d]pyrimidin-7-one], the GI50 in assay [1] is at most 0.25 µM; in assay [2] it was 0.25 to 0.5 µM.

With `C=CC(=O)N1CCN(c2cc3cnc(Nc4ccc(OCCN(C)C)cc4)nc3n([C@H]3C[C@](C)(O)C3)c2=O)c2cccc(C)c21` [Compound 057, 2-[4-[2-(dimethylamino)ethoxy]anilino]-8-((1r,3r)-3-hydroxy-3-methyl-cyclobutyl)-6-(5-methyl-4-prop-2-enoyl-2,3-dihydroquinoxalin-1-yl)pyrido[2,3-d]pyrimidin-7-one], the GI50 in assay [1] and in assay [2] was at most 0.25 µM in each case.

Regarding `C=CC(=O)N1CCN(c2cc3cnc(Nc4cnn(CCN(C)C)c4)nc3n(C)c2=O)c2cccc(C)c21` [Compound 037, 2-[[1-[2-(dimethylamino)ethyl]pyrazol-4-yl]amino]-8-methyl-6-(5-methyl-4-prop-2-enoyl-2,3-dihydroquinoxalin-1-yl)pyrido[2,3-d]pyrimidin-7-one], the GI50 in assay [1] and in assay [2] was at most 0.25 µM each time.

Take `C=CC(=O)N1CCN(c2cc3cnc(Nc4ccc(OCCN(C)C)cc4)nc3n([C@H]3C[C@H](O)C3)c2=O)c2cccc(C)c21` [Compound 044]: the GI50 in assay [1] and in assay [2] was at most 0.25 µM throughout.

For the molecule `C=CC(=O)N1CCN(c2cc3cnc(Nc4ccc(OCCN(C)C)cc4)nc3n(C3CC(O)C3)c2=O)c2cccc(OC)c21` (stereo not drawn) [Compound 077], the GI50 in assay [1] and in assay [2] was at most 0.25 µM in each case.

Regarding `C=CC(=O)N1CCN(c2cc3cnc(NC4CC4)nc3n(C3CCN(C)CC3)c2=O)c2cccc(C)c21` [Compound 105, 2-(cyclopropylamino)-8-(1-methyl-4-piperidyl)-6-(5-methyl-4-prop-2-enoyl-2,3-dihydroquinoxalin-1-yl)pyrido[2,3-d]pyrimidin-7-one], the GI50 in assay [1] and in assay [2] was at most 0.25 µM each time.

`C=CC(=O)N1CCN(c2cc3cnc(Nc4ccc(OCCN(C)C)cc4)nc3n(-c3cccnc3)c2=O)c2cccc(C)c21` [Compound 067]: the GI50 in assay [1] and in assay [2] was at most 0.25 µM each time.

Values taken from patent publication US20250221998A1, “DISCOVERY OF COVALENT EGFR INHIBITOR THROUGH CYSTEINE 775” (Dana-Farber Cancer Institute, Inc., priority 2022, published 2025).
